{
  "source": "patent US20240122930A1",
  "about": "“INTEGRIN INHIBITORS AND USES THEREOF IN COMBINATION WITH OTHER AGENTS” (Pliant Therapeutics, Inc., priority 2022, published 2024)",
  "key": {"[1]": {"system": "bleomycin-treated mice", "assay": "Murine bleomycin model (pSMAD3, collagen deposition)", "format": "in vivo, mice (C57BL/6)", "procedure": "Mice (C57BL/6) were divided into healthy (n=15), vehicle-treated (n=15), and test article-treated (n=15 per dose) groups. Mice in the vehicle and test article-treated groups were administered 3 U/kg of bleomycin (Teva Pharmaceuticals; North Wales, PA) via oropharyngeal aspiration while under anesthesia on day 0. Healthy animals were administered water in a similar fashion. Starting on day 7, mice in the control group were administered PBS vehicle, 130 μL, by oral gavage, BID for 14 days. Also starting on day 7, mice in the test group were administered Compound 5 in PBS by oral gavage, BID for 14 days, at relative dosages of 1×, 2.5× and 5×. […] From day 14 through day 21, 9 of the 15 mice were administered ^2H2O for labeling. All mice were sacrificed on day 21 and tissues were collected. Samples were prepared for analysis either directly from lung tissue, or by bronchoalveolar lavage, which washes out the bronchiolar and alveolar space with saline to produce a bronchoalveolar lavage fluid (BALF) in which 80-90% of cells are alveolar macrophages.\nFIGS. 4F, 4G, and 4H show high resolution second harmonic generation images of fibrillar collagen (collagen type I and III) taken from formalin-fixed paraffin embedded lung tissue sections from a healthy mouse lung (4F), a vehicle-treated mouse lung (4G) and a test-article treated mouse lung (4H; 500 mg/kg BID). Color scale is indicative of collagen fiber density (red=most dense; blue=least dense).\nFIG. 41 is a graph showing the percent total collagen area in the second harmonic generation mouse lung images. Large structural areas of collagen found similarly in healthy and fibrotic tissues (dense collagen fibers surrounding airways were excluded from this analysis to focus on interstitial fibrotic collagen). […] The 1×, 2.5×, and 5× dosages were at the same absolute values in mg/kg as in Example B7.\nThe data for FIGS. 4J and 4K, was obtained 14 days after bleomycin challenge in mice were treated with Compound 5 at 2.5× dose (PO, BID for 1.5 days)."}, "[2]": {"system": "participants with idiopathic pulmonary fibrosis (IPF)", "assay": "Phase 2a clinical trial: High Resolution CT-based Quantitative Lung Fibrosis (QLF) imaging", "format": "in vivo, human", "conditions": "for Mean Percent Change in QLF Extent From Baseline to Week 12 (Mean Difference) / Median change in QLF Extent From Baseline to Week 12 / QLF extent change Baseline to Week 12: Improvers < −2%, % / QLF extent change Baseline to Week 12: Stable [−2, 2%), % / QLF extent change Baseline to Week 12: Worse > 2%, %: CT Protocol Population", "procedure": "Study Design and Objectives. […] At Day 1, baseline values were collected.\n[…]-IPF study design and objectives.\nQLF was measured by computed tomography. […] QLF refers to quantitative lung fibrosis. […] Per CT protocol population: Participants with both baseline and post baseline high resolution computed tomography (HRCT) scans meet evaluability criteria per Imaging Charter."}, "[3]": {"system": "explanted human lung tissue from patients with idiopathic pulmonary fibrosis", "assay": "Fibrosis-related gene expression (nCounter Fibrosis Panel) in precision cut lung slices", "format": "cell-based", "description": "Briefly, tissue samples from patients with IPF were acquired at the time of lung transplantation. […] Treated slices were lysed in mRNA-compatible buffer for gene expression analysis. For this study, the lysate from n=6 slices per treatment per lung were pooled for analysis using the nCounter Fibrosis Panel (Nanostring) on the nCounter Max analyzer (Nanostring). This commercially available panel of 770 genes includes genes related to initial tissue damage response, chronic inflammation, proliferation of pro-fibrotic cells, and tissue modification leading to fibrotic disease. Technical quality control and normalization of raw Nanostring mRNA count data was performed using an R framework developed by Bhattacharya et al. (Bhattacharya A. et al., Brief Bioinform. 2021 May 20; 22(3):bbaa163; herein incorporated by reference in its entirety). The R packages limma (see URL www.bioconductor.org/packages/release/bioc/html/limma.html, which is incorporated herein by reference in its entirety) and voom (Law, C."}, "[4]": {"assay": "Dose-Dependent Target Engagement (FIG. 12, prior studies)", "format": "in vivo, human", "description": "FIG. 12 through FIG. 33 illustrate various details and results from the clinical trial. […] In FIG. 12, BAL refers to bronchoalveolar lavage; pSmad2/Smad2 refers to ratio of phosphorylated Smad2 to total Smad2; and QD refers to once daily. **** refers to p<0.0001."}, "[5]": {"system": "patients with idiopathic pulmonary fibrosis (IPF)", "assay": "Phase 2a randomized, double-blind, placebo-controlled trial in IPF", "format": "in vivo, human", "description": "The exploratory endpoints of the trial measured changes in forced vital capacity (FVC), HRCT-based Quantitative Lung Fibrosis score (QLF), and selected biomarkers over 3 months of treatment."}, "[6]": {"conditions": "bleomycin mice, 1×, […], 5×, vs control mice"}, "[7]": {"conditions": "FIG. 24 Venn region E: only altered by Compound 5 in the absence of pirfenidone"}, "[8]": {"conditions": "gene expression, combination vs individual treatment"}, "[9]": {"conditions": "single treatment, adj. p-value <0.05"}, "[10]": {"conditions": "12 weeks, 40/80/160 mg once daily"}},
  "note": "“Also recorded” adds a separate entry of the source.",
  "data": [
    {"smiles": "COCCN(CCCCc1ccc2c(n1)NCCC2)CC[C@H](Nc1ncnc2ccccc12)C(=O)O", "note": "[Compound 5, (S)-4-((2-methoxyethyl) (4-(5,6,7,8-tetrahydro-1,8-naphthyridin-2-yl)butyl)amino)-2-(quinazolin-4-ylamino) butanoic acid]", "values": [
      {"measurement": "relationship between pSMAD3 levels in lung and BALF cells vs. plasma drug exposure", "setting": "[1]; 14 days after bleomycin challenge, […] dose PO BID for 1.5 days", "value": "close inverse relationship"},
      {"measurement": "accumulated new collagen (percentage of lung collagen containing 2H-labeled hydroxyproline)", "setting": "[1]; bleomycin mice, 1× and 5×, vs control mice", "value": "dose-dependent reduction"},
      {"measurement": "percent total collagen area in second harmonic generation images", "setting": "[1]; [6]", "value": "substantial, statistically significant dose-dependent reduction"},
      {"measurement": "total pulmonary collagen (μg of hydroxyproline)", "setting": "[1]; [6]", "value": "reduction in total pulmonary collagen"},
      {"measurement": "SMAD3 phosphorylation in lung tissue", "setting": "[1]; bleomycin mice, oral gavage BID 14 days, 1×, […], 5× dosages, vs vehicle", "value": "substantial, statistically significant dose-dependent reductions"},
      {"measurement": "Mean Percent Change in QLF Extent From Baseline to Week 12 (Mean Difference)", "setting": "[2]; 40 mg (N = 15)", "value": 3.15, "unit": "%"},
      {"measurement": "Median change in QLF Extent From Baseline to Week 12", "setting": "[2]; 40 mg (N = 15)", "value": 1.50, "unit": "%"},
      {"measurement": "QLF extent change Baseline to Week 12: Improvers < −2%, %", "setting": "[2]; 40 mg (N = 15)", "value": "(6.6%)"},
      {"measurement": "QLF extent change Baseline to Week 12: Stable [−2, 2%), %", "setting": "[2]; 40 mg (N = 15)", "value": "(46.7%)"},
      {"measurement": "QLF extent change Baseline to Week 12: Worse > 2%, %", "setting": "[2]; 40 mg (N = 15)", "value": "(46.7%)"},
      {"measurement": "Mean Percent Change in QLF Extent From Baseline to Week 12 (Mean Difference)", "setting": "[2]; 80 mg (N = 18)", "value": 0.7, "unit": "%"},
      {"measurement": "Median change in QLF Extent From Baseline to Week 12", "setting": "[2]; 80 mg (N = 18)", "value": "−0.45", "unit": "%"},
      {"measurement": "QLF extent change Baseline to Week 12: Improvers < −2%, %", "setting": "[2]; 80 mg (N = 18)", "value": "(11.1%)"},
      {"measurement": "QLF extent change Baseline to Week 12: Stable [−2, 2%), %", "setting": "[2]; 80 mg (N = 18)", "value": "(72.2%)"},
      {"measurement": "QLF extent change Baseline to Week 12: Worse > 2%, %", "setting": "[2]; 80 mg (N = 18)", "value": "(16.7%)"},
      {"measurement": "Mean Percent Change in QLF Extent From Baseline to Week 12 (Mean Difference)", "setting": "[2]; 160 mg (N = 14)", "value": 0, "unit": "%"},
      {"measurement": "Median change in QLF Extent From Baseline to Week 12", "setting": "[2]; 160 mg (N = 14)", "value": "−0.10", "unit": "%"},
      {"measurement": "QLF extent change Baseline to Week 12: Improvers < −2%, %", "setting": "[2]; 160 mg (N = 14)", "value": "(28.6%)"},
      {"measurement": "QLF extent change Baseline to Week 12: Stable [−2, 2%), %", "setting": "[2]; 160 mg (N = 14)", "value": "(50.0%)"},
      {"measurement": "QLF extent change Baseline to Week 12: Worse > 2%, %", "setting": "[2]; 160 mg (N = 14)", "value": "(21.4%)"},
      {"measurement": "Progression based on mean change from baseline in QLF", "setting": "[2]; 160 mg and 320 mg groups, Week 12", "value": "No or limited progression"},
      {"measurement": "Likelihood of stabilization or improvement of fibrosis (QLF) relative to placebo at Week 24", "setting": "[2]; 320 mg", "value": "twice as likely"},
      {"measurement": "Mean (SD) Change in QLF Extent from Baseline at Week 12", "setting": "[2]; 320 mg (n=16), Per CT protocol population, placebo (n=25) 1.46%", "value": 0.2, "unit": "%"},
      {"measurement": "Patients with stable or improved QLF from baseline at week 24", "setting": "[2]; 320 mg, per CT protocol population, stable −2% to 2%, improved <−2%, placebo 33%", "value": 71, "unit": "%"},
      {"measurement": "Patients with worsened QLF from baseline at week 24", "setting": "[2]; 320 mg, per CT protocol population, worsened >2%, placebo 67%", "value": 29, "unit": "%"},
      {"measurement": "Antifibrotic effect on QLF imaging", "setting": "[2]; 40 to 320 mg, Week 12", "value": "Dose-dependent antifibrotic effect"},
      {"measurement": "Genes Down-regulated with Compound 5 and Pirfenidone Alone or in Combination, region E", "setting": "[3]; [7]", "value": "COL3A1 and COL6A3 and LOXL1 and MARCO and MMP8 and PLPP4"},
      {"measurement": "Genes Up-regulated with Compound 5 and Pirfenidone Alone or in Combination, region E", "setting": "[3]; [7]", "value": "APOA2 and CIITA and IFI6 and NOS1 and OAS1 and TTN"},
      {"measurement": "Genes Down-regulated with Compound 5 and Pirfenidone Alone or in Combination, region F", "setting": "[3]; FIG. 24 Venn region F: altered by Compound 5 or pirfenidone alone, but not by Compound 5 in combination with pirfenidone", "value": "CXCR4; also recorded: PECAM1"},
      {"measurement": "Genes up-regulated, Venn region E (FIG. 24)", "setting": "[3]; IPF precision cut lung slices, 7 days, only altered by Compound 5 in the absence of nintedanib", "value": "APOA2 and CCL13 and CIITA and IFI6"},
      {"measurement": "% Reduction APOC2", "setting": "[3]; [8]", "value": "−1.20", "unit": "%"},
      {"measurement": "% Reduction CDH2", "setting": "[3]; [8]", "value": 23.87, "unit": "%"},
      {"measurement": "% Reduction COL1A1", "setting": "[3]; [8]", "value": 38.78, "unit": "%"},
      {"measurement": "% Reduction THBS2", "setting": "[3]; [8]", "value": 31.47, "unit": "%"},
      {"measurement": "logFC ALDH7A1", "setting": "[3]; [9]", "value": 0.57},
      {"measurement": "logFC OAS1", "setting": "[3]; [9]", "value": 0.6104},
      {"measurement": "Target engagement", "setting": "[4]", "value": "dose dependent"},
      {"measurement": "tolerability", "setting": "[5]; 40 mg, 80 mg, 160 mg once daily, 12 weeks", "value": "well tolerated"},
      {"measurement": "increase in FVC relative to baseline", "setting": "[5]; 80 mg treatment group, 12 weeks", "value": "+24.6 mL"},
      {"measurement": "severity of most treatment emergent adverse events (TEAE)", "setting": "[5]; [10]", "value": "mild or moderate"},
      {"measurement": "treatment related deaths or drug related serious adverse events (SAE)", "setting": "[5]; [10]", "value": "No treatment related deaths or drug related serious adverse events"},
      {"measurement": "plasma concentrations vs dose", "setting": "[5]; 40/80/160 mg once daily", "value": "generally dose proportional increases"},
      {"measurement": "patients who completed 12 weeks of treatment with no discontinuations due to adverse events", "setting": "[5]; 67 patients treated, 40/80/160 mg once daily", "value": 97, "unit": "%"},
      {"measurement": "serious adverse events", "setting": "[5]; administration of Compound 5 alone, patients", "value": "did not result in serious adverse events"},
      {"measurement": "serum biomarkers of collagen synthesis", "setting": "[5]; change from baseline at 4 and 12 weeks vs. placebo, FIG. 33", "value": "reduced"},
      {"measurement": "treatment-emergent adverse events (TEAEs)", "setting": "[5]; combinations with nintedanib or with pirfenidone, patients", "value": "resulted in treatment-emergent adverse events"},
      {"measurement": "reduction in FVC decline over 12 weeks versus placebo", "setting": "[5]; pooled Compound 5 groups", "value": "approximately 80%"},
      {"measurement": "circulating biomarkers integrin beta-6 (ITGB6) and Type III collagen synthesis neoepitope (PRO-C3) levels", "setting": "[5]; relative to the placebo group, FIG. 40", "value": "reduced"}
    ]}
  ]
}
